Test [1] relates to soybean (Glycine max (L.) Merr. cv. 'Corsica'). Nature of the test: Field experiments: foliar applications on soybean, seed yield by weight. Type of test: in vivo. Here is the method:
To test the effects of foliar applications of methanol on soybean (Glycine max (L.) Merr. cv. ‘Corsica’ (maturity group IV)), field experiments were conducted over three years. In the first year, methanol at 0, 62.5 and 125 liters×ha^−1 was combined with urea nitrogen at 0, 12.5 and 25 kg×ha^−1 and sprayed with distilled water in a total volume of 500 liters×ha^−1 on test plants at the R5 stage of development. Latron B-1956 (Rohm and Haas) surfactant at 0.1% was included in all treatments. Treatments were applied from a knapsack sprayer in a randomized complete block design with four replications. Test blocks measured 5m×1.52m (7.6m^2). Plants were harvested by hand, threshed, and seed yield determined by weight. All seed weights are reported at 13% moisture content. […] To test whether PPFMS applied to leaves can substitute for methanol, spray applications of the bacterial alone and in combination with methanol were included in field experiments in the third year. […] The bacteria used in these treatments were isolated from soybean seed coat on plates of AMS medium. From a single bacterial colony, a liquid culture in the same medium was established and used to inoculate 12 liter batches of the bacteria in a Microferm fermentor (New Brunswick Scientific). Cells were harvested by centrifugation and resuspended in distilled water for application to plants in the field.

In a further test the test system is soybean. Nature of the test: Greenhouse experiment: methanol sprayed on soybean plants from cured (PPFMs absent) or untreated (PPFMs present) seeds, plant dry weight. Format: in vivo. Conditions: for Mean dry weight +/− SD: methanol 0.5 ml per plant, harvested 2 weeks after spraying; for % gain over controls (dry weight): vs zero-time control. Here is the method:
Application of PPFMs to plants was performed in accordance with the methods detailed in U.S. Pat. No. 5,512,069. Application of methanol to plants was performed in accordance with U.S. Patent No. 5,532,204.
Soybeans were treated with dry heat before planting to lower the population of PPFMs on them (see U.S. Pat. No. 5,512,069). Untreated seeds served as controls.
To test whether the presence of PPFM bacteria is required for foliar applications of methanol to be effective, greenhouse experiments were conducted. Seeds of soybean were cured of their PPFM bacteria with dry heat as previously described (Holland et al, 1992, Plant Physiol 98:942-948)). Cured and untreated seeds wee then plated in the greenhouse in a soil-less potting medium (Pro-Mix BX), Premier Horticulture Inc.). During germination, and while the seedlings established themselves, all plants were watered freely. After 4 weeks, both cured and untreated plants were divided into two groups (each group consisting of approximately 10 pots of 5 plants). One group of cured seedlings and one group of untreated seedlings were maintained as before under freely-watered conditions. […] After 2 weeks, half of the plants in each test group were harvested and dried to constant weight (a zero-time control). The remaining plants were sprayed with methanol (0.5 ml per plant) from an atomizer and were allowed to continue growing under their respective watering regimes for an additional 2 weeks. At the end of this period, all remaining plants were harvested and dried to constant weight.

The next test concerns C3 crop plants. Conditions: foliar sprays of aqueous (10-50%) methanol, arid environments; cited from earlier work.
Where [2] appears, read: second year, M1 = 62.5 liters × ha^−1 methanol, N1 = 12.5 kg × ha^−1 urea.
The mark [3] stands for this setting: non-stressed (freely watered), PPFMs present.
Setting [4] is: stress (wilting) conditions, PPFMs present.

Marks after values point to notes of the source that are not given here.

As for `NC(N)=O` [urea], the “Yield (seed yield)” value in test [1] (first year, M0N1: 0 methanol, 12.5 kg × ha^−1 urea, sprayed at R5) came to 2.18; in test [1] (first year, M0N2: 0 methanol, 25 kg × ha^−1 urea, sprayed at R5) it was 2.15; in test [1] (setting [2]), 2.4.
For the molecule `CO` [methanol], the “effect of methanol application on plant dry weight (a measure of yield)” value in the test on soybean (non-stressed (freely watered) conditions, regardless of whether PPFMs are present) was “does not affect plant dry weight”. Further, the “Mean dry weight +/− SD” value in the test on soybean (non-stressed (freely watered), PPFMs absent (cured seeds)) stood at 5.03 ± 1.19 g; in the test on soybean (setting [3]) it was 6.85 ± 1.69 g; in the test on soybean (stress (wilting) conditions, PPFMs absent (cured seeds)), 2.69 ± 0.65 g; in the test on soybean (setting [4]), 4.64 ± 0.72 g. The “% gain over controls (dry weight)” value is 80% in the test on soybean (non-stressed (freely watered), PPFMs absent (cured)); 78% in the test on soybean (setting [3]); 6% with soybean (stress (wilting) conditions, PPFMs absent (cured)); 65% in the test with soybean (setting [4]). Further, in the test with soybean (stress (wilting) conditions, only when PPFMs are present), the “growth (increase in plant dry weight)” value is given as “improves growth”. Moreover, the “Yield (seed yield)” value in test [1] (first year, M2N0: 125 liters × ha^−1 methanol, 0 urea, sprayed at R5) is 2.28; in test [1] (setting [2]) it was 2.4*. For the same molecule, in the test with C3 crop plants, the growth and yield result is “increased growth and yield”.
